Data: US11739083B2, “Disposable sensor chip with reagent including 2-substituted benzothiazolyl-3-substituted phenyl-5-substituted sulfonated phenyl-2H-tetrazolium salt” (TERUMO KABUSHIKI KAISHA, priority 2016, dated 2023)
Converted amounts (≈) assume the structure as drawn.

Key:
[1] = Maximum absorption wavelength (λmax) of formazan-nickel chelate by spectrophotometer; format: physicochemical; conditions: chelate of formazan and nickel ion, aqueous MOPS, cell length 10 mm, n=1
Method: 10 mM aqueous solution of MOPS was added to each of the formazan compounds so as to obtain a final concentration of […], and thereby 100 μL of a sample was produced. At this time, all of the samples were red-brown in color. Apart from this, a 1 M aqueous solution of nickel ion was produced.
For mixed solutions of various compounds in an aqueous solution of formazan and an aqueous solution of nickel, the spectra were measured with a spectrophotometer (measurement cell length: 10 mm) (n=1). Based on each of the spectra, the maximum absorption wavelength (λmax) (nm) of each of the compounds in formazan was determined. From FIG. 1, it is understood that the maximum absorption wavelength (λmax) of the chelate compound of formazan compound 1 and nickel ion is 630 nm.
The absorbance at the maximum absorption wavelength is denoted as 100%.

[2] = Evaluation of sensitivity (colour development with glucose, GDH-FAD, m-PMS, nickel; gradient versus WST-4); conditions: for Sensitivity, comparison with Comparative Example 5 (ratio) / Sensitivity, comparison with Comparative Example 5 (rating): gradientsample/gradientWST-4; for Sensitivity, comparison with Comparative Example 5 (rating): absorbance at λmax versus glucose concentration, cell length 50 μm
Method: Separately, 100 μL of RO water was added to 7 mg of a glucose dehydrogenase that uses flavin adenine dinucleotide (FAD) as a coenzyme (GDH-FAD) (manufactured by TOYOBO CO., LTD., product No.: GLD-351), the enzyme was dissolved, and thus a GDH solution was produced. Furthermore, 200 μL of RO water was added to 3.5 mg of 1-methoxy-5-methylphenazium methyl sulfate (m-PMS) (manufactured by DOJINDO LABORATORIES), and the compound was dissolved therein. Thus, an s-PMS solution was produced. 1 mL of RO water was added to 129 mg of nickel chloride to dissolve the salt, and thus a nickel solution was produced.
40 μL of the reaction solution was added to 10 μL each of an aqueous glucose solution at a concentration of 125 mg/dL, an aqueous glucose solution at a concentration of 250 mg/dL, and an aqueous glucose solution at a concentration of 1,000 mg/dL, and the mixtures were allowed to develop color. The spectra were measured with a spectrophotometer (measurement cell length: 50 μm) (n=1). […] Thus, the gradient (gradientsample) was determined.
40 μL of the control reaction solution was added to 10 μL each of an aqueous glucose solution at a concentration of 125 mg/dL, an aqueous glucose solution at a concentration of 250 mg/dL, and an aqueous glucose solution at a concentration of 1,000 mg/dL, and the mixtures were allowed to develop color. The spectra were measured with a spectrophotometer (measurement cell length: 50 μm) (n=1). For each of the spectra, the absorbance at 650 nm, which is the measurement wavelength (λmax) of WST-4, was measured, and the glucose concentration in the colored solution and the absorbance were plotted on the horizontal axis and the vertical axis, respectively. Thus, the gradient (gradientWST-4) was determined.
FIG. 2 is a graph showing the relationship between the glucose concentration and the absorbance of produced formazan in relation to the tetrazolium compound 1 and WST-4. […] Meanwhile, the gradient serves as an index for the color development intensity of each compound. Therefore, when the value obtained by dividing the gradientsample by the gradientWST-4 (gradientsample/gradientWST-4) is greater than one-fold, it is implied that the intensity of color development on the longer wavelength side is higher compared to WST-4, which is a well-known indicator reagent.

[3] = Evaluation of water-solubility (visual check for precipitate); format: physicochemical; conditions: RO water and 0.5 M MOPS pH 7.2, 200, 100, 20 mM, stirred 5 minutes; for solubility at 5 min: RO water / 0.5 M MOPS solution (1:1), aqueous buffer, thermodynamic from solid
Method: After the mixture was stirred for 5 minutes, a precipitate was checked by visual inspection. […] After the mixture was stirred for 5 minutes, a precipitate was checked by visual inspection. […] After the mixture was stirred for 5 minutes, a precipitate was checked by visual inspection.

[4] = Evaluation of stability (absorbance increase of measurement solution over 6 hours); conditions: FIG. 3; absorbance increase per hour over 6 hours
Method: To 0.02 mmol of each compound, 75 μL of RO water and 100 μL of a 0.5 M MOPS solution (pH 7.2) were added, and the compound was dissolved therein. The solution was used as a sample.
To 175 μL of this sample, 10 μL of the GDH solution, 5 μL of the m-PMS solution, and 10 μL of the nickel solution, all of which had been produced in the same manner as in the above section (Evaluation of sensitivity), were added, and thereby a measurement solution was produced.
As a control, 85 μL of RO water and 100 μL of a 0.5 M MOPS solution (pH 7.2) were added to 11.6 mg of 2-benzothiazolyl-3-(4-carboxy-2-methoxyphenyl)-5-[4-(2-sulfoethylcarbamoyl)phenyl]-2H-tetrazolium (WST-4), and the compound was dissolved. Thus, a control sample was produced. […] Thus, a control reaction solution was produced.
At the time of production of the measurement solution (0 hour), and after 1 hour, 2 hours, and 6 hours from the production, the spectra of the measurement solutions produced as described above were measured using a spectrophotometer (measurement cell length: 50 μm) (n=1). For each spectrum, the absorbance at the maximum absorption wavelength (λmax) of each compound as determined above was measured. The absorbances measured at the time of production of the measurement solution (0 hour) and after 6 hours from the production were designated as Abs0 h and Abs6 h, respectively. […]

Row | Maximum absorption wavelength (λmax) [1] | solubility at 5 min [3] | [(Abs6 h−Abs0 h)/6] value [4] | Compound | Sensitivity, comparison with Comparative Example 5 (ratio) [2] | Sensitivity, comparison with Comparative Example 5 (rating) [2] | gradient (absorbance versus glucose concentration) ([2]; FIG. 2, compound 1 at its λmax with nickel, WST-4 at 650 nm without nickel) | Water-solubility [3]
1 | 650 nm | > 200 mM | – | COc1ccc(-[n+]2nc(-c3ccc(S(=O)(=O)O)cc3S(=O)(=O)O)nn2-c2nc3cc4c(cc3s2)OCO4)cc1S(=O)(=O)[O-] [Example 17] | 2.4 times | ⊙ (gradientsample/gradientWST-4) was 2 or greater) | – | –
2 | 640 nm | > 200 mM | – | COc1ccc2nc(-n3nc(-c4cc(S(=O)(=O)O)cc(S(=O)(=O)O)c4)n[n+]3-c3ccc(OC)c(S(=O)(=O)[O-])c3)sc2c1 [Example 9] | – | ◯ (the value of the ratio gradientsample/gradientWST-4 was 1.5 or greater and less than 2) | – | –
3 | 630 nm | 100 to 200 mM | – | COc1ccc2nc(-n3nc(-c4ccc(O)cc4S(=O)(=O)[O-])n[n+]3-c3cc(S(=O)(=O)[O-])ccc3OC)sc2c1.[Na+] [Example 5] | – | ◯ (the value of the ratio gradientsample/gradientWST-4 was 1.5 or greater and less than 2) | – | –
4 | 645 nm | 100 to 200 mM | – | COc1ccc2nc(-n3nc(-c4ccccc4S(=O)(=O)[O-])n[n+]3-c3ccc(S(=O)(=O)[O-])cc3)sc2c1.[Na+] [Example 7] | – | ⊙ (gradientsample/gradientWST-4) was 2 or greater) | – | –
5 | 630 nm | > 200 mM | – | COc1ccc2nc(-n3nc(-c4ccc(S(=O)(=O)O)cc4S(=O)(=O)O)n[n+]3-c3cc(S(=O)(=O)[O-])c([N+](=O)[O-])cc3OC)sc2c1 [Example 3] | – | ◯ (the value of the ratio gradientsample/gradientWST-4 was 1.5 or greater and less than 2) | – | –
6 | 620 nm | > 200 mM | – | COc1ccc2nc(-n3nc(-c4ccc(S(=O)(=O)O)cc4S(=O)(=O)[O-])n[n+]3-c3ccc(C(=O)O)cc3OC)sc2c1 [Example 10] | – | ◯ (the value of the ratio gradientsample/gradientWST-4 was 1.5 or greater and less than 2) | – | –
7 | 630 nm | > 200 mM | – | CCOc1ccc2nc(-n3nc(-c4ccc(S(=O)(=O)O)cc4S(=O)(=O)O)n[n+]3-c3ccc(OC)c(S(=O)(=O)[O-])c3)sc2c1 [Example 20] | 2.4 times | ⊙ (gradientsample/gradientWST-4) was 2 or greater) | – | –
8 | No chelation | – | about 0.01 | 2-benzothiazolyl-3-(4-carboxy-2-methoxyphenyl)-5-[4-(2-sulfoethylcarbamoyl)phenyl]-2H-tetrazolium [Comparative Example 5, reference compound] | 1 times | – | 0.0026 | ◯ (a precipitate was seen in the 200 mM aqueous solution, but there was no precipitate in the 100 mM aqueous solution)
9 | 620 nm | > 200 mM | – | COc1ccc2nc(-n3nc(-c4cc(S(=O)(=O)[O-])cc(S(=O)(=O)O)c4)n[n+]3-c3cc(S(=O)(=O)O)ccc3OC)sc2c1 [Example 8] | – | ◯ (the value of the ratio gradientsample/gradientWST-4 was 1.5 or greater and less than 2) | – | –
10 | 640 nm | > 200 mM | – | COc1ccc(-[n+]2nc(-c3ccc(S(=O)(=O)O)cc3S(=O)(=O)O)nn2-c2nc3cc4c(cc3s2)OCCO4)cc1S(=O)(=O)[O-] [Example 19] | 2.4 times | ⊙ (gradientsample/gradientWST-4) was 2 or greater) | – | –
11 | 580 nm | 100 to 200 mM (≈ 54.6 to 109 mg/mL) | – | COc1ccccc1-[n+]1nc(-c2ccc(S(=O)(=O)O)cc2S(=O)(=O)[O-])nn1-c1nc2ccccc2s1 [compound 4, reference compound] | – | ⊙ (gradientsample/gradientWST-4) was 2 or greater) | – | –
12 | 650 nm | 20 to 100 mM | – | COc1ccc2nc(-n3nc(-c4ccc(S(=O)(=O)[O-])cc4S(=O)(=O)[O-])n[n+]3-c3ccc([N+](=O)[O-])cc3OC)sc2c1.[Na+] [Example 4] | – | ⊙ (gradientsample/gradientWST-4) was 2 or greater) | – | –
13 | 625 nm | > 200 mM | – | COc1ccc(S(=O)(=O)O)cc1-[n+]1nc(-c2ccc(S(=O)(=O)O)cc2S(=O)(=O)[O-])nn1-c1nc2cc3c(cc2s1)OCO3 [Example 13] | 2.4 times | ⊙ (gradientsample/gradientWST-4) was 2 or greater) | – | –
14 | 580 nm | 100 to 200 mM (≈ 62.6 to 125 mg/mL) | – | COc1ccc(S(=O)(=O)O)cc1-[n+]1nc(-c2ccc(S(=O)(=O)O)cc2S(=O)(=O)[O-])nn1-c1nc2ccccc2s1 [Comparative Example 1, reference compound] | – | Δ (the value of the ratio gradientsample/gradientWST-4 was greater than 1 and less than 1.5) | – | –
15 | 600 nm | > 200 mM | – | COc1ccc2nc(-n3nc(-c4ccc(S(=O)(=O)O)cc4S(=O)(=O)[O-])n[n+]3-c3cc(S(=O)(=O)O)ccc3OC)sc2c1 [Example 2] | – | ⊙ (gradientsample/gradientWST-4) was 2 or greater) | – | –
16 | 610 nm | > 200 mM | – | COc1ccc(S(=O)(=O)O)cc1-[n+]1nc(-c2ccc(S(=O)(=O)O)cc2S(=O)(=O)[O-])nn1-c1nc2cc3c(cc2s1)OCCO3 [Example 14] | 2.4 times | ⊙ (gradientsample/gradientWST-4) was 2 or greater) | – | –
17 | 650 nm | 20 to 100 mM | – | COc1ccc2nc(-n3nc(-c4ccc(O)c(S(=O)(=O)[O-])c4)n[n+]3-c3cc(S(=O)(=O)[O-])ccc3OC)sc2c1.[Na+] [Example 6] | – | ⊙ (gradientsample/gradientWST-4) was 2 or greater) | – | –
18 | 605 nm | > 200 mM | – | COc1ccc2nc(-n3nc(-c4cc(S(=O)(=O)[O-])cc(S(=O)(=O)O)c4)n[n+]3-c3cc(C(=O)O)ccc3OC)sc2c1 [Example 11] | – | ◯ (the value of the ratio gradientsample/gradientWST-4 was 1.5 or greater and less than 2) | – | –
19 | 630 nm | > 200 mM | – | COc1ccc2nc(-n3nc(-c4ccc(S(=O)(=O)O)cc4S(=O)(=O)[O-])n[n+]3-c3ccc(OC)c(C(=O)O)c3)sc2c1 [Example 12] | 2.4 times | ⊙ (gradientsample/gradientWST-4) was 2 or greater) | – | –
